The target of one experiment is T1, α4β3γ2 GABAA/BzR (Homo sapiens, UniProt P18507+P48169).
T1 construct: expressed in transfected cells; host or cells: LTK cells (given for XLi-093 only)
The experiment can be described thus: biochemical. It counts as binding.

The target of experiment [1] is T2, α1β3γ2 GABAA/BzR (Homo sapiens, UniProt P14867+P18507). Description: Competition binding to HEK cell membranes, α1β3γ2. On the set-up: expressed in transfected cells.
Experiment [2] has as its target T3, α2β3γ2 GABAA/BzR (Homo sapiens, UniProt P18507+P47869). Description: Competition binding to HEK cell membranes, α2β3γ2. On the set-up: expressed in transfected cells.
The target of experiment [3] is T4, α3β3γ2 GABAA/BzR (Homo sapiens, UniProt P18507+P34903). Description: Competition binding to HEK cell membranes, α3β3γ2. Set-up: expressed in transfected cells.
Experiment [4] addresses T5, α5β3γ2 GABAA/BzR (Homo sapiens, UniProt P18507+P31644). The experiment can be described thus: Competition binding to HEK cell membranes, α5β3γ2. Set-up: expressed in transfected cells.
A further experiment deals with α6β3γ2 GABAA/BzR (Homo sapiens, UniProt P18507+Q16445). The experiment can be described thus: Competition binding to HEK cell membranes, α6β3γ2. Set-up: expressed in transfected cells.
Experiment [5] deals with T2, α1β3γ2 GABAA/BzR. On the set-up: expressed in transfected cells; host or cells: LTK cells (given for XLi-093 only). The settings on record: read-out: Affinity Ki α1; cited from earlier work.
The target of experiment [6] is T3, α2β3γ2 GABAA/BzR. On the set-up: expressed in transfected cells; host or cells: LTK cells (given for XLi-093 only). The settings on record: read-out: Affinity Ki α2; cited from earlier work.
Experiment [7] concerns the target T4, α3β3γ2 GABAA/BzR. Set-up: expressed in transfected cells; host or cells: LTK cells (given for XLi-093 only). The settings on record: read-out: Affinity Ki α3; cited from earlier work.
In experiment [8] the target is T5, α5β3γ2 GABAA/BzR. On the set-up: expressed in transfected cells; host or cells: LTK cells (given for XLi-093 only). The settings on record: read-out: Affinity Ki α5; cited from earlier work.

Like-named read-outs stand apart in the source and are kept apart here.

Consider `CCC(OC(=O)c1ncn2c1C1CCCN1C(=O)c1cc(Br)ccc1-2)C(F)(F)F` (centres unmarked) [MMB-II-87], for which the inhibitory constant (Ki) came out at 109 nM on α4β3γ2 GABAA/BzR (read-out: Ki α4); 200 nM at α1β3γ2 GABAA/BzR [1] (read-out: Ki α1); 333 nM on α2β3γ2 GABAA/BzR [2] (read-out: Ki α2); 107 nM at α3β3γ2 GABAA/BzR [3] (read-out: Ki α3); 5.4 nM at α5β3γ2 GABAA/BzR [4] (read-out: Ki α5); 333 nM on α6β3γ2 GABAA/BzR (read-out: Ki α6).

For `CC(C)OC(=O)c1ncn2c1[C@@H]1CCCN1C(=O)c1cc(Br)ccc1-2` [MMB-II-90], the inhibition constant (Ki) at α4β3γ2 GABAA/BzR (read-out: Ki α4) worked out at 9 nM; at α1β3γ2 GABAA/BzR [1] (read-out: Ki α1), 20 nM; at α2β3γ2 GABAA/BzR [2] (read-out: Ki α2) it was 24 nM; on α3β3γ2 GABAA/BzR [3] (read-out: Ki α3), 5.7 nM; at α5β3γ2 GABAA/BzR [4] (read-out: Ki α5) it was 0.25 nM; at α6β3γ2 GABAA/BzR (read-out: Ki α6) it was 36 nM.

Regarding `CC(C)(C)OC(=O)c1cc2c(cn1)[nH]c1ccc(I)cc12` [CM-A100], the Ki on α4β3γ2 GABAA/BzR (read-out: Ki α4) worked out at 1000 nM; at α1β3γ2 GABAA/BzR [1] (read-out: Ki α1), 14.5 nM; on α2β3γ2 GABAA/BzR [2] (read-out: Ki α2), 44.9 nM; on α3β3γ2 GABAA/BzR [3] (read-out: Ki α3), 124 nM; at α5β3γ2 GABAA/BzR [4] (read-out: Ki α5), 65.3 nM; at α6β3γ2 GABAA/BzR (read-out: Ki α6), 1000 nM.

In the case of `C#Cc1ccc2c(c1)C(c1ccccc1F)=NCC(=O)N2C` [OMB-18], the inhibition constant Ki at α4β3γ2 GABAA/BzR (read-out: Ki α4) came out at 1730 nM; at α1β3γ2 GABAA/BzR [1] (read-out: Ki α1), 3.9 nM; on α2β3γ2 GABAA/BzR [2] (read-out: Ki α2), 1.2 nM; at α3β3γ2 GABAA/BzR [3] (read-out: Ki α3), 3.4 nM; on α5β3γ2 GABAA/BzR [4] (read-out: Ki α5), 0.8 nM; on α6β3γ2 GABAA/BzR (read-out: Ki α6) it was 5 nM.

Consider `CC(C)OC(=O)c1ncn2c1[C@@H]1CCCN1C(=O)c1ccccc1-2` [MMB-III-016], for which the Ki came out at 1070 nM at α4β3γ2 GABAA/BzR (read-out: Ki α4); 3 nM at α1β3γ2 GABAA/BzR [1] (read-out: Ki α1); 1.97 nM at α2β3γ2 GABAA/BzR [2] (read-out: Ki α2); 2 nM on α3β3γ2 GABAA/BzR [3] (read-out: Ki α3); 0.26 nM on α5β3γ2 GABAA/BzR [4] (read-out: Ki α5); 211 nM on α6β3γ2 GABAA/BzR (read-out: Ki α6).

With `CC(C)(C)CC(=O)c1cc2c(cn1)[nH]c1ccccc12` [CM-A77], the Ki at α4β3γ2 GABAA/BzR (read-out: Ki α4) was 1000 nM; at α1β3γ2 GABAA/BzR [1] (read-out: Ki α1), 11.5 nM; on α2β3γ2 GABAA/BzR [2] (read-out: Ki α2), 51.9 nM; on α3β3γ2 GABAA/BzR [3] (read-out: Ki α3), 105 nM; on α5β3γ2 GABAA/BzR [4] (read-out: Ki α5), 42.6 nM; on α6β3γ2 GABAA/BzR (read-out: Ki α6), 1000 nM.

Take `COc1ccc2c(c1)C(=O)N1CCC[C@H]1c1c(C(=O)OCc3ccccc3)ncn1-2` [CM-E10]: the Ki on α4β3γ2 GABAA/BzR (read-out: Ki α4) was 215 nM; on α1β3γ2 GABAA/BzR [1] (read-out: Ki α1) it was 23 nM; at α2β3γ2 GABAA/BzR [2] (read-out: Ki α2), 26 nM; at α3β3γ2 GABAA/BzR [3] (read-out: Ki α3), 14 nM; at α5β3γ2 GABAA/BzR [4] (read-out: Ki α5) it was 0.51 nM; at α6β3γ2 GABAA/BzR (read-out: Ki α6) it was 96 nM.

For the compound `CC[C@H](C)OC(=O)c1ncn2c1[C@@H]1CCCN1C(=O)c1cc(F)ccc1-2` [CM-B44 (ss)], the Ki at α4β3γ2 GABAA/BzR (read-out: Ki α4) is 379 nM; on α1β3γ2 GABAA/BzR [1] (read-out: Ki α1) it was 32 nM; on α2β3γ2 GABAA/BzR [2] (read-out: Ki α2), 43 nM; at α3β3γ2 GABAA/BzR [3] (read-out: Ki α3) it was 12 nM; on α5β3γ2 GABAA/BzR [4] (read-out: Ki α5), 4.3 nM; at α6β3γ2 GABAA/BzR (read-out: Ki α6), 485 nM.

`C#Cc1ccc2c(c1)C(=O)N(C)Cc1c(C(=O)OCC)ncn1-2` [RY-080 C17H15N3O3]: the Ki amounted to 5.3 nM at α4β3γ2 GABAA/BzR; 28.4 nM on α1β3γ2 GABAA/BzR [1] (Ki α1); 21.4 nM on α2β3γ2 GABAA/BzR [2] (Ki α2); 25.8 nM on α3β3γ2 GABAA/BzR [3] (Ki α3); 0.49 nM at α5β3γ2 GABAA/BzR [4] (Ki α5); 28.8 nM at α6β3γ2 GABAA/BzR (Ki α6).

`CN1Cc2c(C(=O)OC(C)(C)C)ncn2-c2ccc(C#C[Si](C)(C)C)cc2C1=O` [RY-023 C22H27N3O3Si]: the Ki turned out to be 7.8 nM on α4β3γ2 GABAA/BzR (read-out: Ki α4); 197 nM at α1β3γ2 GABAA/BzR [1] (read-out: Ki α1); 143 nM on α2β3γ2 GABAA/BzR [2] (read-out: Ki α2); 255 nM on α3β3γ2 GABAA/BzR [3] (read-out: Ki α3); 2.61 nM at α5β3γ2 GABAA/BzR [4] (read-out: Ki α5); 58.6 nM on α6β3γ2 GABAA/BzR (read-out: Ki α6).

For the compound `CC(C)(C)OC(=O)c1cc2c(cn1)[nH]c1ccc(C(C)(C)C)cc12` [CM-A82a], the Ki on α4β3γ2 GABAA/BzR was determined as 1000 nM; on α1β3γ2 GABAA/BzR [1] (Ki α1) it was 2.78 nM; on α1β3γ2 GABAA/BzR [1] (read-out: Ki α1) it was 2.78 nM; on α2β3γ2 GABAA/BzR [2] (Ki α2) it was 8.93 nM; at α2β3γ2 GABAA/BzR [2] (read-out: Ki α2) it was 8.93 nM; on α3β3γ2 GABAA/BzR [3] (Ki α3) it was 24.5 nM. Besides, the Ki at α3β3γ2 GABAA/BzR [3] (read-out: Ki α3) was 24.5 nM; at α5β3γ2 GABAA/BzR [4] (Ki α5), 7.49 nM; at α5β3γ2 GABAA/BzR [4] (read-out: Ki α5) it was 7.49 nM; on α6β3γ2 GABAA/BzR (Ki α6), 1000 nM; on α1β3γ2 GABAA/BzR [5] it was 2.78 nM; at α2β3γ2 GABAA/BzR [6] it was 8.93 nM. Further, the Ki on α3β3γ2 GABAA/BzR [7] is 24.5 nM; on α5β3γ2 GABAA/BzR [8] it was 7.49 nM.
